From patent US20100056526A1, “HETEROMONOCYCLIC COMPOUND AND USE THEREOF” (Takeda Pharmaceutical Company Limited, priority 2006, published 2010) come the findings set out here.

Where a name gives a salt, the structure may show the parent alone. Read-outs that look alike come from different tables or passages of the source.

For assay [1], the target named is T1, PPARγ (Homo sapiens, UniProt P37231).
T1 construct: expressed in transfected cells; host or cells: CHO-K1
T1 sequence (P37231 1-477 isoform P37231-2): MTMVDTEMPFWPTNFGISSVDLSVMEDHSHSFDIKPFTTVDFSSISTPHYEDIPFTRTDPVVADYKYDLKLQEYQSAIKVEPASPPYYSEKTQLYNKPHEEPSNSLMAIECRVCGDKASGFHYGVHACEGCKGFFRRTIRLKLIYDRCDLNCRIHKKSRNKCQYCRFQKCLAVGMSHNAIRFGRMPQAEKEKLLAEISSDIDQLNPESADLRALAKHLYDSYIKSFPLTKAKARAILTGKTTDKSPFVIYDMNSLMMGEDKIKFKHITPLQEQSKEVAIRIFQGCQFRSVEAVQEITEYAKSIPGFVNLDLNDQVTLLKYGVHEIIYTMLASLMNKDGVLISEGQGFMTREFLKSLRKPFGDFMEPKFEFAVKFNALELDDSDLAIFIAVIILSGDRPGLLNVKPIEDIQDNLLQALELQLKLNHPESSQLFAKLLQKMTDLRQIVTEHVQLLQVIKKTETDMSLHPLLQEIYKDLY
T1 sequence (P19793 1-462 partner): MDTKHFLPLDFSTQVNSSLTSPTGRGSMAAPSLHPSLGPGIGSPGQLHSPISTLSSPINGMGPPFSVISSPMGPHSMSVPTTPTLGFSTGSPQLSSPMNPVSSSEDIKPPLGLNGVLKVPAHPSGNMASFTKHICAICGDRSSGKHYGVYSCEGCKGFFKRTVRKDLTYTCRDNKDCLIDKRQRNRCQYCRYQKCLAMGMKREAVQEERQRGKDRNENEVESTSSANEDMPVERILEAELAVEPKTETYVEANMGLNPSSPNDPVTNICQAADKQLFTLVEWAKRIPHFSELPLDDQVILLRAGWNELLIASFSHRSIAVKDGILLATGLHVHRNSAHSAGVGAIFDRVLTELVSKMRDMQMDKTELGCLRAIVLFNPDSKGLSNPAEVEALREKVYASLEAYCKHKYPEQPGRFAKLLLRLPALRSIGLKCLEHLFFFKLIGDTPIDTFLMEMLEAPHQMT
The assay can be described thus: Evaluation of PPARγ activating action (luciferase reporter in PPARγ:RXRα:4ERPP/CHO-K1 cells). It counts as cell-based. To be noted: CHO-K1, 24 h, read-out: PPARγ activating action (activation % (10^−6 M)). As to the method:
PPARγ:RXRα:4ERPP/CHO-K1 cells obtained in the following Reference Example 5 were cultured in F12 medium [manufactured by INVITROGEN, USA] containing 10% fetal bovine serum [manufactured by MOREGATE, Australia], seeded in a 96-well half area white plate [manufactured by Corning Coster Corporation, USA] at the density of 5×10^3 cells/well and cultured in a CO2 gas incubator at 37° C. overnight.
Then the medium was removed from the 96-well half area white plate, 45 μl of Ham's F12 medium containing 0.1% fatty acid-free bovine serum albumin (BSA) and 5 μl of test compound were added, and the cells were cultured in a CO2 gas incubator at 37° C. for 1 day. The medium was removed and 20 μl of PicaGene 7.5 [manufactured by TOYO INK MFG. CO., LTD.,.Japan] diluted 2-fold with HBSS (HANKS' BALANCED SALT SOLUTION) [manufactured by BIO WHITTAKER, USA] was added. After stirring, the luciferase activity was determined using 1420 ARVO Multilabel Counter [manufactured by PerkinElmer, USA].
The percent (%) was calculated from the luciferase activity of each test compound when the luciferase activity of the control compound (compound X: 5-[3-(4-{[2-(2-furyl)-5-methyl-1,3-oxazol-4-yl]methoxy}-3-methoxyphenyl)propyl]-1,3-oxazolidine-2,4-dione) (1 μM) was 100% and that of the test compound non-administration group was 0%.
A CHO-K1 cell cultured in a 150 cm^2 cell culture flask [manufactured by Corning Costar Corporation, USA] containing Ham's F12 medium [manufactured by INVITROGEN, USA] supplemented with 10% fetal bovine serum [manufactured by INVITROGEN, USA] was scraped by treating with 0.5 g/L trypsin-0.2 g/L EDTA (ethylenediaminetetraacetic acid) [manufactured by Life Technologies, Inc., USA], and then the cell was washed with PBS (Phosphate-buffered saline) [manufactured by INVITROGEN, USA], centrifuged (1000 rpm, 5 minutes) and suspended in PBS. Subsequently, DNA was introduced into the cell under the conditions shown below using GENE PULSER [manufactured by Bio-Rad Laboratories, USA].
Namely, to a cuvette having a 0.4 cm gap were added 8×10^6 cells and 10 μg of plasmid pVgRXR2-hPPARγ obtained in Reference Example 4 and 10 μg of reporter plasmid pGL3-4ERPP-TK neo obtained in Reference Example 3, which was subjected to electroporation at the voltage of 0.25 kV under the capacitance of 960 μF. Subsequently, the cell was transferred into a F12 medium containing 10% fetal bovine serum and cultured for 24 hours, and then the cell was scraped again and centrifuged, and then suspended in Ham's F12 medium containing 10% fetal bovine serum supplemented with 500 μg/ml of Geneticin [manufactured by INVITROGEN, USA] and 250 μg/ml of Zeocin [manufactured by INVITROGEN, USA]. The obtained suspension was diluted to the density of 10^4 cells/ml and inoculated in a 96-well plate [manufactured by Corning Costar Corporation, USA], which was cultured in a CO2 gas incubator at 37° C., whereby obtaining a Geneticin- and Zeocin-resistant transformant.
Subsequently, after the transformant cell line thus obtained was cultured in a 24-well plate [manufactured by Corning Costar Corporation, USA], a cell line in which the luciferase was expressed and induced, i.e., PPARγ:RXRα:4ERPP/CHO-K1 cell was selected by the addition of 10 μM pioglitazone hydrochloride.

Assay [2] addresses T2, human AT1 receptor (Homo sapiens, UniProt P30556).
T2 construct: expressed in transfected cells; host or cells: CHO-K1
T2 sequence (P30556 1-359): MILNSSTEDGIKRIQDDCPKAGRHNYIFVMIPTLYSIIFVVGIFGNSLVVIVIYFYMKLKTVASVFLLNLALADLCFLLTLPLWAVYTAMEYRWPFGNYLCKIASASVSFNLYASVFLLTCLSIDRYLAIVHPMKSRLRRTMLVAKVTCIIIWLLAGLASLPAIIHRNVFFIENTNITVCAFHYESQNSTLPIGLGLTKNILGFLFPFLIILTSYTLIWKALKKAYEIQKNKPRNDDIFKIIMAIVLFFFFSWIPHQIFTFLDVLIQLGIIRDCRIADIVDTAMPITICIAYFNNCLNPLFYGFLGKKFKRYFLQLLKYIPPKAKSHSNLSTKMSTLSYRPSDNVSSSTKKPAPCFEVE
The assay can be described thus: Binding assay using human AT1 receptor-expressing CHO-K1 cell membrane fraction ([125I]-angiotensin II). To be noted: 22.5 pM [125I]-angiotensin II, 9 μg AT1 membrane, 1 hr room temperature; read-out: AT1 receptor binding inhibitory action (IC50 (nM)). As to the method: The membrane fraction for human AT1 receptor binding assay was prepared as follows. CHO-K1 cell capable of stable expression of human AT1 receptor was cultured, recovered, suspended in homogenize buffer (10 mM NaHCO3 (pH 7.4), 5 mM EDTA, 1×Complete EDTA free) [manufactured by Roche, Switzerland], and homogenized. The homogenate was centrifuged at low-speed (900×g, 10 min, 4° C.), and the supernatant was recovered and ultracentrifuged (90,000×g, 1 hr, 4° C.). The supernatant was discarded, and the pellets were resuspended in resuspension buffer (50 mM Tris (pH 7.4), 1 mM EDTA, 1×Complete EDTA free).
The binding assay was performed in the presence of 22.5 pM [^125I]-angiotensin II [manufactured by PerkinElmer, USA], 9 μg of AT1 membrane and test compound in 100 μL (total reaction volume) of reaction buffer (50 mM Tris (pH 7.4), 10 mM MgCl2 supplemented or not supplemented with 0.3 mg/mL fatty acid-free bovine serum albumin [manufactured by Wako Pure Chemical Industries, Ltd., Japan]). The reaction mixture was incubated in 96 well polypropylene plate for 1 hr at room temperature, and the reaction was quenched by rapid filtration (96 well cell harvester) through a GF/C filter treated with wash buffer (50 mM Tris (pH 7.4)). Subsequently, the filter was washed 5 times with 0.3 mL of ice-cooled wash buffer. The filter was air-dried, and [^125I]-angiotensin II binding radioactivity was assayed with Top Count scintillation counter. Total binding was measured in the presence of 1% DMSO and nonspecific binding was measured in the presence of 1 μM CV-11974. The binding data was analyzed by GraphPad Prism program and the IC50 value (compound concentration showing 50% of the maximum value of inhibition percent) of the test compound was calculated.

Where [3] appears, read: test compound 10^−6 M, luciferase activity relative to control compound X (1 μM) = 100%, non-administration group = 0%.

As to `CCCc1nc(C)c(-c2ccc(OC(C)C)cc2)c(=O)n1Cc1ccc(-c2ccccc2-c2noc(O)n2)cc1F` [Example 450, 3-{[3-fluoro-2′-(5-oxo-4,5-dihydro-1,2,4-oxadiazol-3-yl)biphenyl-4-yl]methyl}-5-(4-isopropoxyphenyl)-6-methyl-2-propylpyrimidin-4(3H)-one], the activation at 1 µM in assay [1] (setting [3]) came out at 23.7%. In addition, the IC50 in assay [2] turned out to be 1.8 nM.

In the case of `CCCCc1nc(C)n(-c2ccc(OCC)cc2)c(=O)c1Cc1ccc(-c2ccccc2-c2noc(=O)[nH]2)cc1` [Example 222, 6-butyl-3-(4-ethoxyphenyl)-2-methyl-5-{[2′-(5-oxo-4,5-dihydro-1,2,4-oxadiazol-3-yl)biphenyl-4-yl]methyl}pyrimidin-4(3H)-one], in assay [1] (setting [3]), the activation at 1 µM worked out at 29.3%. In addition, the IC50 in assay [2] worked out at 1.3 nM.

In the case of `CCCc1nc(CC)n(-c2ccc(OC3CCOC(C)(C)C3)cc2)c(=O)c1Cc1ccc(-c2ccccc2-c2noc(=O)[nH]2)cc1` (centres unmarked) [Example 413, 3-{4-[(2,2-dimethyltetrahydro-2H-pyran-4-yl)oxy]phenyl}-2-ethyl-5-{[2′-(5-oxo-4,5-dihydro-1,2,4-oxadiazol-3-yl)biphenyl-4-yl]methyl}-6-propylpyrimidin-4(3H)-one], the activation at 1 µM in assay [1] (setting [3]) came out at 18.9%. In assay [2], the IC50 is 1.7 nM.

Turning to `CCCc1nc(C)c(Oc2ccc(OC)cc2)c(=O)n1Cc1ccc(-c2ccccc2-c2noc(O)n2)cc1` [Example 476, 5-(4-methoxyphenoxy)-6-methyl-3-{[2′-(5-oxo-4,5-dihydro-1,2,4-oxadiazol-3-yl)biphenyl-4-yl]methyl}-2-propylpyrimidin-4(3H)-one potassium salt], the activation at 1 µM in assay [1] was 18.5%. For the same compound, the IC50 in assay [2] stood at 2.1 nM.

As for `CCCc1nc(C)n(-c2ccc(OC(C)C)cc2)c(=O)c1Cc1ccc(-c2ccccc2-c2noc(=O)[nH]2)cc1F` [Example 141, 5-{[3-fluoro-2′-(5-oxo-4,5-dihydro-1,2,4-oxadiazol-3-yl)biphenyl-4-yl]methyl}-3-(4-isopropoxyphenyl)-2-methyl-6-propylpyrimidin-4(3H)-one], the activation at 1 µM in assay [1] (setting [3]) was 38.3%. The IC50 in assay [2] was 1.8 nM.

On to `CCCc1nc(CC)c(-c2ccc(OC(F)(F)F)cc2)c(=O)n1Cc1ccc(-c2ccccc2-c2noc(O)n2)cc1` [Example 457, 6-ethyl-3-{[2′-(5-oxo-4,5-dihydro-1,2,4-oxadiazol-3-yl)biphenyl-4-yl]methyl}-2-propyl-5-[4-(trifluoromethoxy)phenyl]pyrimidin-4(3H)-one], for which the activation at 1 µM in assay [1] (setting [3]) came to 36%. Further, in assay [2], the IC50 stood at 3.5 nM.

Consider `CCCCc1nc(C)n(-c2ccccc2)c(=O)c1Cc1c(F)cc(-c2ccccc2-c2noc(=O)[nH]2)cc1F` [Example 204, 6-butyl-5-{[3,5-difluoro-2′-(5-oxo-4,5-dihydro-1,2,4-oxadiazol-3-yl)biphenyl-4-yl]methyl}-2-methyl-3-phenylpyrimidin-4(3H)-one], for which the activation at 1 µM in assay [1] (setting [3]) turned out to be 27.4%. Also, the IC50 in assay [2] came out at 1.6 nM.

For `CCCc1nc(C)n(OC2CCOCC2)c(=O)c1Cc1ccc(-c2ccccc2-c2noc(=O)[nH]2)cc1` [Example 379, 2-methyl-5-{[2′-(5-oxo-4,5-dihydro-1,2,4-oxadiazol-3-yl)biphenyl-4-yl]methyl}-6-propyl-3-(tetrahydro-2H-pyran-4-yloxy)pyrimidin-4(3H)-one], the activation at 1 µM in assay [1] (setting [3]) was found to be 31%. Further, the IC50 in assay [2] came out at 3.4 nM.

With `CCCc1nc(C)n(-c2ccc(OC(C)(C)C(C)O)cc2)c(=O)c1Cc1ccc(-c2ccccc2-c2noc(=O)[nH]2)cc1` (centres unmarked) [Example 439, 3-[4-(2-hydroxy-1,1-dimethylpropoxy)phenyl]-2-methyl-5-{[2′-(5-oxo-4,5-dihydro-1,2,4-oxadiazol-3-yl)biphenyl-4-yl]methyl}-6-propylpyrimidin-4(3H)-one], the activation at 1 µM in assay [1] (setting [3]) stood at 20.1%. In assay [2], the half-inhibitory concentration (IC50) turned out to be 1.4 nM.

As for `CCCc1nc(CC)n(-c2ccc(OC(C)(C)CO)cc2)c(=O)c1Cc1ccc(-c2ccccc2-c2noc(=O)[nH]2)cc1` [Example 377, 2-ethyl-3-[4-(2-hydroxy-1,1-dimethylethoxy)phenyl]-5-{[2′-(5-oxo-4,5-dihydro-1,2,4-oxadiazol-3-yl)biphenyl-4-yl]methyl}-6-propylpyrimidin-4(3H)-one], in assay [1] (setting [3]), the activation at 1 µM was 30.3%. The IC50 in assay [2] turned out to be 1.5 nM.
